The values that follow come from patent US10285982B2, “3-(1H-pyrrolo[2,3-B]pyridin-2-yl)-1H-pyrazolo[3,4-C]pyridines and therapeutic uses thereof” (Samumed, LLC, priority 2015, dated 2019).

The test system of this assay is primary human fibroblasts derived from IPF patients (LL29 cells) treated with TGF-β1. Put plainly: Inhibition of fibrotic process, αSMA staining in TGF-β1 treated LL29 fibroblasts. The format is cell-based. As to conditions: Fibroblast; for EC50: 96 h, % αSMA positive LL29 cells, TGF-β1 20 ng/mL, 4 days; for inhibition at 10 µM: given where EC50 >10 μM, αSMA, LL29 cells, TGF-β1, read-out: percent inhibition at 10 μM. The text has this:
Representative compounds were screened using primary human fibroblasts (derived from IPF patients) treated with TGF-β1 to determine their ability to inhibit the fibrotic process.
Primary human fibroblasts derived from IPF patients (LL29 cells) [^1Xiaoqiu Liu, et. al., “Fibrotic Lung Fibroblasts Show Blunted Inhibition by cAMP Due to Deficient cAMP Response Element-Binding Protein Phosphorylation”, Journal of Pharmacology and Experimental Therapeutics (2005), 315(2), 678-687; ^2Watts, K. L., et. al., “RhoA signaling modulates cyclin D1 expression in human lung fibroblasts; implications for idiopathic pulmonary fibrosis”, Respiratory Research (2006), 7(1), 88] were obtained from American Type Culture Collection (ATCC) and expanded in F12 medium supplemented with 15% Fetal Bovine Serum and Penicillin/Streptomycin.
Each compound was dissolved in DMSO as a 10 mM stock and used to prepare compound source plates. Serial dilution (1:2, 11-point dose-response curves from 10 μM to 1.87 nM) and compound transfer was performed using the ECHO 550 (Labcyte, Sunnyvale, Calif.) into 384-well clear bottom assay plates (Greiner Bio-One) with appropriate DMSO backfill for a final DMSO concentration of 0.1%. LL29 cells are plated at 1,500 cells/well in 80 μL/well F12 medium supplemented with 1% Fetal Bovine Serum. One hour after addition of the cells, TGF-β1 (Peprotech; 20 ng/mL) was added to the plates to induce fibrosis (ref. 1 and 2 above). Wells treated with TGF-β1 and containing DMSO were used as controls. Cells were incubated at 37° C. and 5% CO2 for 4 days. Following incubation for 4 days, SYTOX green nucleic acid stain (Life Technologies [Thermo Fisher Scientific]) was added to the wells at a final concentration of 1 μM and incubated at room temperature for 30 min. Cells were then fixed using 4% formaldehyde (Electron Microscopy Sciences), washed 3 times with PBS followed by blocking and permeabilization using 3% Bovine Serum Albumin (BSA; Sigma) and 0.3% Triton X-100 (Sigma) in PBS. Cells were then stained with antibody specific to α-smooth muscle actin (αSMA; Abcam) (ref. 1 and 2 above) in 3% Bovine Serum Albumin (BSA; Sigma) and 0.3% Triton X-100 (Sigma) in PBS, and incubated overnight at 4° C. Cells were then washed 3 times with PBS, followed by incubation with Alexa Flor-647 conjugated secondary antibody (Life Technologies [Thermo Fisher Scientific]) and DAPI at room temperature for 1 hour. Cells were then washed 3 times with PBS and plates were sealed for imaging. αSMA staining was imaged by excitation at 630 nm and emission at 665 nm and quantified using the Compartmental Analysis program on the CellInsight CX5 (Thermo Scientific). Dead or apoptotic cells were excluded from analysis based on positive SYTOX green staining. % of total cells positive for αSMA were counted in each well and normalized to the average of 11 wells treated with TGF-β1 on the same plate using Dotmatics' Studies Software. The normalized averages (fold change over untreated) of 3 replicate wells for each compound concentration were used to create dose-responses curves and EC50 values were calculated using non-linear regression curve fit in the Dotmatics' Studies Software. For EC50 of >10 μM, the percent inhibition at 10 μM is provided.

As a reminder, the EC50 is the concentration giving half of the maximal effect. Higher therefore signals a need for much substance. In general, inhibition refers to the drop in the measured response relative to a control, in per cent.

As for `CN(C)Cc1cncc(-c2cc3c(-c4cc5c(-c6ccccc6F)ccnc5[nH]4)n[nH]c3cn2)c1` [Compound 69, 1-(5-(3-(4-(2-Fluorophenyl)-1H-pyrrolo[2,3-b]pyridin-2-yl)-1H-pyrazolo [3,4-c]pyridin-5-yl)pyridin-3-yl)-N,N-dimethylmethanamine], the half-maximal effective concentration (EC50) was over 10 µM and the inhibition at 10 µM turned out to be 0%.
The matching figures for `O=C(Nc1cncc(-c2cc3c(-c4cc5cccnc5[nH]4)n[nH]c3cn2)c1)c1ccccc1` [Compound 263, N-(5-(3-(1H-Pyrrolo[2,3-b]pyridin-2-yl)-1H-pyrazolo[3,4-c]pyridin-5-yl)pyridin-3-yl)benzamide]: over 10 µM and 55.3%.
Consider `c1cc(N2CCCCC2)c2cc(-c3n[nH]c4cnc(C5CCNCC5)cc34)[nH]c2n1` [Compound 601, 3-(4-(Piperidin-1-yl)-1H-pyrrolo[2,3-b]pyridin-2-yl)-5-(piperidin-4-yl)-1H-pyrazolo[3,4-c]pyridine], for which the EC50 was over 10 µM and the inhibition at 10 µM stood at 13%.
As for `O=C(Nc1cncc(-c2cc3c(-c4cc5c(-c6ccccc6F)ccnc5[nH]4)n[nH]c3cn2)c1)C1CCCCC1` [Compound 79, N-(5-(3-(4-(2-Fluorophenyl)-1H-pyrrolo[2,3-b]pyridin-2-yl)-1H-pyrazolo [3,4-c]pyridin-5-yl)pyridin-3-yl)cyclohexanecarboxamide], the EC50 is 1.34 µM.
Take `CC(C)CC(=O)Nc1cncc(-c2cc3c(-c4cc5c(-c6ccncc6)ccnc5[nH]4)n[nH]c3cn2)c1` [Compound 114, 3-Methyl-N-(5-(3-(4-(pyridin-4-yl)-1H-pyrrolo[2,3-b]pyridin-2-yl)-1H-pyrazolo[3,4-c]pyridin-5-yl)pyridin-3-yl)butanamide]: the EC50 was over 10 µM and the inhibition at 10 µM amounted to 0%.
Take `c1cc(N2CCCCC2)c2cc(-c3n[nH]c4cnc(-c5cncc(CN6CCCC6)c5)cc34)[nH]c2n1` [Compound 182, 3-(4-(Piperidin-1-yl)-1H-pyrrolo[2,3-b]pyridin-2-yl)-5-(5-(pyrrolidin-1-ylmethyl)pyridin-3-yl)-1H-pyrazolo[3,4-c]pyridine]: the EC50 is 4.51 µM.
For `c1ccc(-c2cc3c(-c4cc5c(-c6ccncc6)ccnc5[nH]4)n[nH]c3cn2)nc1` [Compound 140, 5-(Pyridin-2-yl)-3-(4-(pyridin-4-yl)-1H-pyrrolo[2,3-b]pyridin-2-yl)-1H-pyrazolo[3,4-c]pyridine], the EC50 is over 10 µM and the inhibition at 10 µM turned out to be 10.5%.
Consider `Fc1cccc(-c2ccnc3[nH]c(-c4n[nH]c5cnc(-c6cccnc6)cc45)cc23)c1` [Compound 4, 3-(4-(3-Fluorophenyl)-1H-pyrrolo[2,3-b]pyridin-2-yl)-5-(pyridin-3-yl)-1H-pyrazolo[3,4-c]pyridine], for which it took 1.03 µM to reach a half-maximal effect (EC50).
Regarding `Fc1cccc(-c2ccnc3[nH]c(-c4n[nH]c5cnc(-c6cncc(OCc7ccccc7)c6)cc45)cc23)c1` [Compound 518, 5-(5-(Benzyloxy)pyridin-3-yl)-3-(4-(3-fluorophenyl)-1H-pyrrolo[2,3-b]pyridin-2-yl)-1H-pyrazolo[3,4-c]pyridine], the EC50 was over 10 µM and the inhibition at 10 µM turned out to be 27.5%.
For `O=C(Cc1ccccc1)Nc1cncc(-c2cc3c(-c4cc5c(-c6ccncc6)ccnc5[nH]4)n[nH]c3cn2)c1` [Compound 122, 2-Phenyl-N-(5-(3-(4-(pyridin-4-yl)-1H-pyrrolo[2,3-b]pyridin-2-yl)-1H-pyrazolo[3,4-c]pyridin-5-yl)pyridin-3-yl)acetamide], the EC50 was over 10 µM and the inhibition at 10 µM was 8.1%.
With `O=C(Nc1cncc(-c2cc3c(-c4cc5cccnc5[nH]4)n[nH]c3cn2)c1)C1CCCCC1` [Compound 275, N-(5-(3-(1H-Pyrrolo[2,3-b]pyridin-2-yl)-1H-pyrazolo[3,4-c]pyridin-5-yl)pyridin-3-yl)cyclohexanecarboxamide], the EC50 is 2.52 µM.
`CN(C)CCOc1cncc(-c2cc3c(-c4cc5c(-c6cccnc6)ccnc5[nH]4)n[nH]c3cn2)c1` [Compound 563, N,N-Dimethyl-2-((5-(3-(4-(pyridin-3-yl)-1H-pyrrolo[2,3-b]pyridin-2-yl)-1H-pyrazolo[3,4-c]pyridin-5-yl)pyridin-3-yl)oxy)ethan-1-amine]: the EC50 is 1.11 µM.
The same measure, in the same setting: to `CC(C)CC(=O)Nc1cncc(-c2cc3c(-c4cc5c(-c6ccc(F)cc6)ccnc5[nH]4)n[nH]c3cn2)c1` [Compound 30, N-(5-(3-(4-(4-Fluorophenyl)-1H-pyrrolo[2,3-b]pyridin-2-yl)-1H-pyrazolo [3,4-c]pyridin-5-yl)pyridin-3-yl)-3-methylbutanamide] belongs 0.82 µM.
For `O=C(Nc1cncc(-c2cc3c(-c4cc5c(N6CCCCC6)ccnc5[nH]4)n[nH]c3cn2)c1)C1CC1` [Compound 188, N-(5-(3-(4-(Piperidin-1-yl)-1H-pyrrolo[2,3-b]pyridin-2-yl)-1H-pyrazolo[3,4-c]pyridin-5-yl)pyridin-3-yl)cyclopropanecarboxamide], the concentration giving a half-maximal response (EC50) is 1.78 µM.
The compound `CCCCC(=O)Nc1cncc(-c2cc3c(-c4cc5c(-c6ccccc6F)ccnc5[nH]4)n[nH]c3cn2)c1` [Compound 75, N-(5-(3-(4-(2-Fluorophenyl)-1H-pyrrolo[2,3-b]pyridin-2-yl)-1H-pyrazolo [3,4-c]pyridin-5-yl)pyridin-3-yl)pentanamide] showed an EC50 of 0.076 µM.
On the same count and under the same terms, to `Oc1cncc(-c2cc3c(-c4cc5c(-c6ccc(F)cc6)ccnc5[nH]4)n[nH]c3cn2)c1` [Compound 533, 5-(3-(4-(4-Fluorophenyl)-1H-pyrrolo[2,3-b]pyridin-2-yl)-1H-pyrazolo[3,4-c]pyridin-5-yl)pyridin-3-ol] belongs 3.54 µM.
Consider `O=C(Nc1cncc(-c2cc3c(-c4cc5c(-c6ccc(F)cc6)ccnc5[nH]4)n[nH]c3cn2)c1)C1CCC1` [Compound 49, N-(5-(3-(4-(4-Fluorophenyl)-1H-pyrrolo[2,3-b]pyridin-2-yl)-1H-pyrazolo [3,4-c]pyridin-5-yl)pyridin-3-yl)cyclobutanecarboxamide], for which the EC50 came to 1.53 µM.
Same read-out and setting: the result for `O=C(Nc1cncc(-c2cc3c(-c4cc5c(-c6cccc(F)c6)ccnc5[nH]4)n[nH]c3cn2)c1)c1ccccc1` [Compound 11, N-(5-(3-(4-(3-Fluorophenyl)-1H-pyrrolo[2,3-b]pyridin-2-yl)-1H-pyrazolo [3,4-c]pyridin-5-yl)pyridin-3-yl)benzamide] reads 4.21 µM; that for `O=C(Cc1ccccc1)Nc1cncc(-c2cc3c(-c4cc5c(-c6ccccc6F)ccnc5[nH]4)n[nH]c3cn2)c1` [Compound 66, N-(5-(3-(4-(2-Fluorophenyl)-1H-pyrrolo[2,3-b]pyridin-2-yl)-1H-pyrazolo [3,4-c]pyridin-5-yl)pyridin-3-yl)-2-phenylacetamide], 0.501 µM.
Still for that read-out and setting: the result for `O=C(Nc1cncc(-c2cc3c(-c4cc5c(-c6ccncc6)ccnc5[nH]4)n[nH]c3cn2)c1)C1CCC1` [Compound 133, N-(5-(3-(4-(Pyridin-4-yl)-1H-pyrrolo[2,3-b]pyridin-2-yl)-1H-pyrazolo[3,4-c]pyridin-5-yl)pyridin-3-yl)cyclobutanecarboxamide] reads 2.6 µM.
The compound `CC(C)C(=O)Nc1cncc(-c2cc3c(-c4cc5c(-c6ccc(F)cc6)ccnc5[nH]4)n[nH]c3cn2)c1` [Compound 37, N-(5-(3-(4-(4-Fluorophenyl)-1H-pyrrolo[2,3-b]pyridin-2-yl)-1H-pyrazolo [3,4-c]pyridin-5-yl)pyridin-3-yl)isobutyramide] came in with an EC50 of 0.668 µM.
The same measure, in the same setting: the result for `Cc1ccncc1-c1cc2c(-c3cc4c(-c5ccncc5)ccnc4[nH]3)n[nH]c2cn1` [Compound 117, 5-(4-Methylpyridin-3-yl)-3-(4-(pyridin-4-yl)-1H-pyrrolo[2,3-b]pyridin-2-yl)-1H-pyrazolo[3,4-c]pyridine] reads 4.43 µM.
